Data: ChEMBL document CHEMBL3507680, “University of Dundee, Gates Library screen for HepG2 cell viability”

Experiment: Human HepG2 cell viability assay in 384 well format
Format: toxicity, cell-based
Parameters: dose 125 nL, time 70.5 hour; cytotoxicity at 70.5 h: concentration not given beside the values
Details: HepG2 cells, read-out: Inhibition

| Compound | cytotoxicity at 70.5 h [%] |
| --- | --- |
| CCn1ncc(-c2nc3c[nH]n(CC)c-3n2)c1C | 0.803 |
| Cc1cc(C)n2ncc(CN3CCC(n4cc(CCO)nn4)CC3)c2n1 | -1.82 |
| COc1ccccc1CNC(C)c1cnc2cc(C)nn2c1C (configuration not stated) | -1.5 |
| Fc1cccc(CN2CCO[C@H]3[C@@H](OCc4ccccn4)CC[C@@H]32)c1 | -15.5 |
| CCN1CCN(Cc2c(C3CCCC3)[nH]c3ncccc23)CC1 | -6.15 |
| Cc1ccc2c(c1)C(N1CCOCC1)CC21CCNCC1 (configuration not stated) | -8.36 |
| COc1c(C)cnc(CNC(=O)CCc2nc3ccccc3[nH]2)c1C | -3.14 |
| Cc1ccc(CN2CCC3(CCC(C(=O)N(C)C)O3)CC2)o1 (configuration not stated) | -23.2 |
| CN(C(=O)c1cccc(Cl)c1)C1CCN(c2ccccn2)CC1 | 2.1 |
| CC(C)c1nnc(NC(=O)Cc2csc(-c3nnc[nH]3)n2)s1 | 22.4 |
| Cc1ccc(S(=O)(=O)NCC(C)(C)N)c(F)c1 | -6.25 |
| O=C(COCCOc1ccccc1)NC1CCN(c2ccccn2)CC1 | -12.1 |
| CCN(CC)CC1CCN(Cc2ccn(C)c(=O)c2)CC1 | -4.81 |
| CC(=O)c1cc(CN2C[C@H]3CC[C@@H]2CN(S(=O)(=O)N(C)C)C3)cs1 | 12.5 |
| NC(=O)CN1CCC(NC(=O)N2CCCC2c2ccncc2)CC1 (configuration not stated) | -11.7 |
| CCC(NC(=O)CCCN1CCCCC1)c1cn2cccnc2n1 (configuration not stated) | -0.954 |
| CC(C)(C)n1ncc2c1NC(=O)CSC2c1ccc2c(c1)OCCO2 (configuration not stated) | -13 |
| CCCN1CCC(CC(=O)N[C@H](C(=O)O)c2cccc(F)c2F)CC1 | -8.2 |
| O=C(NCc1cnn2cccnc12)C1CC(=O)N(Cc2cccnc2)C1 (configuration not stated) | 30.6 |
| CC(NC(=O)NC1CC1)c1nc(-c2ccccc2)cs1 (configuration not stated) | -8.69 |
| O=S1(=O)NC2(CCCN(Cc3ccc(F)cc3)C2)COc2ccccc21 (configuration not stated) | -3.88 |
| COC1CCN(C(=O)Cn2nc(C)cc2C)CC1 | -3.13 |
| CCOc1nn(CC)cc1-c1nnc(SCC)n1C | -12.3 |

| Compound | cytotoxicity at 70.5 h [%] |
| --- | --- |
| Cc1ccc(CC2CCCN(S(C)(=O)=O)C2)nc1 (configuration not stated) | -9.35 |
| O=C(NCCCn1ccnc1)C1CCC(=O)N1Cc1cccs1 (configuration not stated) | -9.7 |
| CN(C)S(=O)(=O)N1CC[C@H]2OCC[C@@]2(COc2cccnc2)C1 | -12.5 |
| O=C(Cc1csc(-c2ccccc2Cl)n1)NCc1cccc(C(=O)O)c1 | -18.1 |
| CCCn1cc(C(=O)NCCCC(N)=O)c2ccccc21 | -2.51 |
| COCC(=O)N1CCC2(COCc3cnc(-c4ccccc4)nc32)C1 (configuration not stated) | -3.58 |
| COCCN1C[C@@H]2OCCN(c3ccnc(N(C)C)n3)[C@@H]2C1 | 0.722 |
| CN1Cc2ccccc2CC2(CCN(c3ncc(F)cn3)CC2)C1=O | -12.1 |
| COc1ccc(CC(=O)N2CC[C@H](CO)[C@H](O)C2)c(OC)c1 | -7.77 |
| O=C1CC2(CCN(S(=O)(=O)C3CC3)C2)CN1c1cncnc1 (configuration not stated) | 4.54 |
| CN1Cc2ccccc2CC2(CCN(c3ncccn3)CC2)C1=O | -14.8 |
| Cn1cc(N2CCN(c3ccc(C#N)cc3Br)CC2=O)cn1 | -4.85 |
| CN(Cc1cnn(C)c1)C1CCCN(Cc2noc(C3CC3)n2)C1 (configuration not stated) | 50.1 |
| CCCNC(=O)c1cc2c(c3ccccc3n2C)n1C(=O)N(C)C | -5.66 |
| CCN(Cc1cnn(C)c1)S(=O)(=O)N1CCCC1c1ccco1 (configuration not stated) | 3.59 |
| Cn1c(CN2CCCC2)nnc1C1CCCN(C(=O)C2CCOCC2)C1 (configuration not stated) | -3.01 |
| Cc1ccc(N(C)S(=O)(=O)c2cc(C(=O)O)cs2)cc1 | 4.32 |
| COc1ccc(C2CC(=O)Nc3c2nc2n3CCCC2)cc1O (configuration not stated) | -15.2 |
| Cc1nccn1-c1ccc(C(C)NCc2cc[nH]n2)cc1 (configuration not stated) | -0.399 |
| O=C(NCCNc1ncccn1)c1ccc(OCc2ccccc2)nc1 | -13.5 |
| O=C(NCC1CCCO1)N1CCN(Cc2ccc3c(c2)CCO3)CC1 (configuration not stated) | -9.76 |
| CC(NCc1nnc2n1CCCC2)c1nc(-c2cccs2)no1 (configuration not stated) | 2.78 |
| CN(C)C(=O)C1(c2cnccn2)CCCN1C(=O)Cc1ccccc1 (configuration not stated) | -5.41 |

| Compound | cytotoxicity at 70.5 h [%] |
| --- | --- |
| Cc1ccc(-c2cc(C(=O)N(C)Cc3noc4c3CCCC4)[nH]n2)o1 | 43.8 |
| O=C(c1cccn1Cc1cccs1)N1CCN2CCCCC2C1 (configuration not stated) | 4.27 |
| COCCN1C[C@H]2CN(C(=O)c3ccno3)CCN2C1=O | -6.26 |
| CC(=O)NCCCSC1CCCN(c2ccccc2Cl)C1=O (configuration not stated) | -15.3 |
| CCOCC1CN(C(=O)CC2=CCCCC2)Cc2nnn(C)c21 (configuration not stated) | -12.8 |
| CNC(=O)NCC1CCC2(CCN(c3ncccn3)CC2)CO1 (configuration not stated) | -3.53 |
| O=C(CCN1CCOC(Cn2cccn2)C1)NC1CCCCC1 (configuration not stated) | -0.965 |
| O=S(=O)(Cc1cccc(F)c1)NCC(O)Cc1ccccc1 (configuration not stated) | -10.7 |
| CCc1nnc2n1CCN(c1nc3ccccc3o1)C2 | -7.72 |
| COCCCN(C)c1nc(-c2ccncc2)nc(C)c1C | -5.34 |
| O=C(c1ccncc1)N1C[C@@H]2CC[C@H](C1)N(C(=O)N1CCOCC1)C2 | -7.89 |
| N#Cc1ccnc(N2CCN(CC(O)c3cc(F)ccc3F)CC2)c1 (configuration not stated) | -5.77 |
| Cc1nc(CO[C@H]2CN(C(=O)c3cccn3C)[C@@H]3COC[C@H]23)cs1 | -11.5 |
| CCCN(CC1COc2ccccc2O1)C(=O)CCN1C(=O)CCC1=O (configuration not stated) | -18.8 |
| COCCc1noc(CN2CCCC2Cn2nc(C)nc2C)n1 (configuration not stated) | 44.8 |
| CC(C(=O)N1CCN(CCOc2ccccc2)CC1)n1cncn1 (configuration not stated) | 9.32 |
| CN(C)C(=O)Cn1ccc2cc(NC(=O)N3CCSCC3)ccc21 | -7.46 |
| COc1ncccc1CNC(=O)N(Cc1ccc(F)cc1F)C1CC1 | -12.4 |
| O=C(NC1CC1)[C@H]1COC[C@H]2CN(c3ncc(F)cn3)C[C@H]21 | -8.95 |
| Cc1nc(C(=O)N(C)C2CC(=O)N(Cc3ccccc3)C2=O)cs1 (configuration not stated) | -5.65 |
| CCC1CCCCN1CCNC(=O)N1CCN(Cc2ccon2)CC1 (configuration not stated) | -2.53 |
| Cn1ccnc(Sc2ccccc2)c1=O | -9.9 |
| Cc1occc1C(=O)N1CCO[C@H]2[C@H](OCc3cccnc3)CC[C@@H]21 | -8.78 |

| Compound | cytotoxicity at 70.5 h [%] |
| --- | --- |
| [O-][S+](Cc1c(F)cccc1Cl)Cc1nnnn1C1CC1 (configuration not stated) | -14.6 |
| Fc1ccc(CN2CCC(c3noc(-c4cnccn4)n3)CC2)cc1F | -1.05 |
| COc1ccc(NC(=O)N2CCC(c3nnc[nH]3)CC2)cc1C | -3.69 |
| Cc1cccc(CN2CCC(NCC3CNc4cc(C)nn4C3)CC2)c1 (configuration not stated) | -6.82 |
| Clc1ccc(-c2cnc(CNC3CCc4ncnn4C3)o2)cc1 (configuration not stated) | -12.9 |
| Cc1ccc(C(=O)N2C[C@@H]3CC[C@H](C2)N(CC2CCC2)C3)s1 | 7.49 |
| Cc1ccoc1C(=O)NCc1ccnc(OCC(F)(F)F)c1 | -3.36 |
| Cc1cc(C)nc(N2CCCC(Cn3cc(CN(C)C)nn3)C2)n1 (configuration not stated) | -6.18 |
| Cc1noc(C)c1CN1CCCC1C(=O)OCc1ccccc1 (configuration not stated) | -10.7 |
| CN1CCC(CNC(=O)NCc2ccc(F)cc2)CC1 | -1.23 |
| COc1ccccc1C(C)CC(=O)N1CCN(S(N)(=O)=O)CC1 (configuration not stated) | -3.69 |
| O=C(Cc1ccccc1Cl)N1CCN(CC(O)COCCO)CC1 (configuration not stated) | 1.21 |
| Cn1ccc2c(NC(=O)Cn3ncc4c(c3=O)CCCCC4)cccc21 | 3.29 |
| COc1ccc2c(c1)CC(C(=O)N(C)Cc1noc3c1CCCC3)CO2 (configuration not stated) | -4.86 |
| CC(C)CNC(=O)[C@H]1C[C@@H]2CN(Cc3cccnc3)C[C@H]1O2 | -2.17 |
| Cc1cc(C)c2nc(CNC3CCCNC3=O)cc(O)c2c1 (configuration not stated) | -6.5 |
| CC(=O)c1cc(CC(=O)NCc2c(F)cccc2F)cs1 | -7.61 |
| Cc1nc(C)c(CC(=O)Nc2nnc(C(C)C)s2)c(=O)[nH]1 | -5.16 |
| O=S(=O)(N1CCCC1)N1CCc2sccc2C1 | 0.675 |
| O=C(Cc1c(F)cccc1Cl)NC1CCCCNC1=O (configuration not stated) | -5.89 |
| NC(=O)c1cc2c(nc1CCOCc1ccccc1)CCC2 | -8.58 |
| CC(C)c1noc(CCC(=O)N2CCCC(n3ccnc3)C2)n1 (configuration not stated) | -5.4 |
| CCOC(=O)CCC(=O)N1CCC(Oc2ncccc2Cl)CC1 | -4.05 |

| Compound | cytotoxicity at 70.5 h [%] |
| --- | --- |
| COCC1CCCN(c2cncc(OCc3ccccc3)n2)C1 (configuration not stated) | 6.39 |
| Cc1nn2c(=O)/c(=C\c3cccs3)sc2nc1=O | -5.48 |
| O=C(COc1ccccc1Br)N1CCOc2ccncc21 | -3.18 |
| CCN(C)c1ncc2c(c1C(=O)O)CCN(C1CCOC1)C2 (configuration not stated) | 0.989 |
| Cc1[nH]c2ccc(CNc3cc(C(=O)NC(C)C)ccn3)cc2c1C | -1.62 |
| CCCNC(=O)c1cc(C2CCCN(Cc3ccccn3)C2)no1 (configuration not stated) | 21.2 |
| O=C1[C@H]2CC[C@H](CN(Cc3nnc(C4CC4)o3)C2)N1Cc1cscn1 | 18.5 |
| CN(C)[C@@H]1CN(C(=O)c2ccc3ccccc3n2)C[C@H]1O | -7.72 |
| CCc1ncnc(N2CCOCC2C(N)=O)c1F (configuration not stated) | -5.74 |
| CN(C)C(=O)Cn1c2c(ccc1=O)CC(NCc1cccnc1)CC2 (configuration not stated) | -10.4 |
| CC(=O)Nc1nc(C(=O)N2CCCC2c2noc(C(C)C)n2)cs1 (configuration not stated) | 1.7 |
| O=C(NCc1ccccc1)N1CCC(Oc2ncccc2Br)CC1 | -7.02 |
| Cc1ccoc1C(=O)N1C[C@@H]2[C@@H](C1)OCC(=O)N2Cc1cccnc1 | 29.7 |
| CC(O)Cc1cn(CC2CCN(c3nccc4occc34)CC2)nn1 (configuration not stated) | 4.74 |
| CCC(=O)N1CCN(C(=O)CCn2cc(Cl)cn2)[C@H]2CS(=O)(=O)C[C@H]21 | -5.55 |
| CN(C)c1cc(C(=O)N2CCN(S(C)(=O)=O)CC2)ccn1 | -1 |
| Cc1noc(C)c1CN1CCN(C(C)c2nc(C3CC3)no2)CC1 (configuration not stated) | -3.54 |
| Cc1ccnc(NCCNC(=O)c2ccccc2NCC(=O)O)c1 | 5.62 |
| Cn1nccc1-c1nnn2c1COCC(CNC1CCOCC1)C2 (configuration not stated) | 0.0787 |
| CC(C)N1CCC(C(=O)NC[C@H]2CCc3ccccc3O2)CC1 | -17.4 |
